According to publication PMC11784839, “Monoaminergic neurotransmitters are bimodal effectors of tau aggregation” (Science Advances, 2025):

Target: tau (Homo sapiens, UniProt P10636)
Assay: MCE Phenols Library screening, tau biosensor cell seeding assay (AvZ)
Assay type: cell-based
Settings: for Z repl 1 / Z Repl 2: Z score; for Z repl 1 / raw data 1: replicate 1; for Z Repl 2 / raw data 2: replicate 2; for AvZ (average z score of seeding, SDs from the mean level of seeding): 10 μM phenol in cell cultures, AD brain homogenate preincubated 16 hours, two biological replicates, positive = catalyzes seeding, negative = inhibits
[1] = average Z score of the two replicates, MCE Phenols Library screen
[2] = average puncta of the two replicates
[3] = average Z score of the two replicates, tau biosensor seeding, MCE Phenols Library screen
[4] = average Z score of the two replicates, tau seeding
[5] = average Z score of two replicates, Phenols Library screen

Chain of tau (P10636 623-695 limits assumed): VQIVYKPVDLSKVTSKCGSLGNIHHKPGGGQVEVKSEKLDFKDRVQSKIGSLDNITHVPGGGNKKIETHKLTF

Compound | Z repl 1 | Z Repl 2 | av Z [1] | av puncta [2] | raw data 1 (raw puncta) | raw data 2 (raw puncta) | av puncta (average of raw data 1 and 2) | raw data 1 (puncta) | raw data 2 (puncta) | AvZ (average z score of seeding, SDs from the mean level of seeding) | av Z [4] | av Z [5] | av Z [3]
Oc1cc(O)c2c(c1)O[C@H](c1cc(O)c(O)c(O)c1)[C@H](O)C2 [(-)-Epigallocatechin] | -0.424 | -0.047 | -0.236 | 16761.1 | 21261.4 | 12260.9 | – | – | – | – | – | – | –
Oc1cc(O)c2c(c1)O[C@@H](c1cc(O)c(O)c(O)c1)[C@H](O)C2 [(-)-Gallocatechin] | -1.316 | -0.749 | -1.032 | – | – | – | 7661.42 | 10555.6 | 4767.22 | – | – | – | –
Oc1ccc2c(c1)OC[C@H]1c3cc4c(cc3O[C@@H]21)OCO4 [(-?)?-Maackiain] | 0.975 | 0.791 | – | – | – | – | 29633.2 | 38055.6 | 21210.9 | – | – | – | 0.883
COC(=O)/C=C/c1ccc(O)cc1 [(E)-Methyl 4-coumarate] | 0.336 | -0.209 | – | – | – | – | 20459.1 | 30381.4 | 10536.7 | 0.064 | – | – | –
COc1ccc2cc1Oc1ccc(cc1)C[C@H]1c3cc(c(OC)cc3CCN1C)Oc1c(O)c(OC)cc3c1[C@@H](C2)N(C)CC3 [(R)-Fangchinoline] | 0.226 | 0.65 | – | – | – | – | 24385.2 | 29066.8 | 19703.5 | – | 0.438 | – | –
CC[C@@]1(O)C(=O)OCc2c1cc1n(c2=O)Cc2cc3cc(O)ccc3nc2-1 [(S)-10-Hydroxycamptothecin] | 1.738 | 1.796 | – | – | – | – | 39581.6 | 47219.2 | 31944.1 | – | – | – | 1.767
CC(C)=CC[C@H](OC(=O)C=C(C)C)C1=CC(=O)c2c(O)ccc(O)c2C1=O [?,?-Dimethylacrylalkannin] | 0.881 | 0.516 | – | – | – | – | 27599.4 | 36919.9 | 18278.8 | – | 0.698 | – | –
OC[C@H]1O[C@@H](Oc2ccc(O)cc2)[C@H](O)[C@@H](O)[C@@H]1O [?-Arbutin] | 1.599 | 0.945 | – | – | – | – | 34202.6 | 45542.6 | 22862.6 | – | – | – | 1.272
CC(C)=CC[C@@H](OC(=O)CC(C)(C)O)C1=CC(=O)c2c(O)ccc(O)c2C1=O [?-Hydroxyisovalerylshikonin] | -0.737 | -0.673 | -0.705 | 11543.5 | – | – | – | 17504.1 | 5582.9 | – | – | – | –
Cc1cc(O)c(C)c2c1O[C@](C)(CCC[C@H](C)CCC[C@H](C)CCCC(C)C)CC2 [?-Tocopherol] | 0.056 | -0.786 | -0.365 | 15701 | 27026 | 4376.13 | – | – | – | – | – | – | –
Cc1c(C)c2c(c(C)c1O)CC[C@@](C)(CCC[C@H](C)CCC[C@H](C)CCCC(C)C)O2 [?-Vitamin E] | -0.172 | -0.481 | -0.326 | 15958 | 24288.2 | 7627.82 | – | – | – | – | – | – | –
CC(=O)O[C@@H](CC=C(C)C)C1=CC(=O)c2c(O)ccc(O)c2C1=O [Acetylalkannin] | -0.759 | -0.292 | -0.525 | 13443.1 | – | – | – | 17242.7 | 9643.51 | – | – | – | –
CC(=O)O[C@H](CC=C(C)C)C1=CC(=O)c2c(O)ccc(O)c2C1=O [Acetylshikonin] | 0.563 | 1.037 | – | – | – | – | 28473.3 | 33102.4 | 23844.2 | – | – | – | 0.8
O=C1c2ccccc2C(=O)c2c1ccc(O)c2O [Alizarin] | -0.67 | -0.047 | -0.359 | 15284.3 | 18305.8 | 12262.8 | – | – | – | – | – | – | –
CC(=O)Cc1cc(=O)c2c(C)cc(O)c([C@@H]3O[C@H](CO)[C@@H](O)[C@H](O)[C@H]3O)c2o1 [Aloesin] | 0.457 | -0.177 | – | – | – | – | 21354.9 | 31839.2 | 10870.5 | – | 0.14 | – | –
O=C1c2c(O)cccc2C([C@@H]2O[C@H](CO)[C@@H](O)[C@H](O)[C@H]2O)c2cc(CO)cc(O)c21 (stereo partly shown) [Aloin] | 0.178 | 0.236 | – | – | – | – | 21886.9 | 28489.7 | 15284.2 | – | 0.207 | – | –
COc1cc(C(C)=O)ccc1O [Apocynin] | -1.155 | -0.185 | – | 11639.1 | – | – | – | 12482.9 | 10795.4 | -0.67 | – | – | –

More lines, main results first:

Z repl 1 | Z Repl 2 | av Z [1] | av puncta [2] | raw data 1 (raw puncta) | raw data 2 (raw puncta) | av puncta (average of raw data 1 and 2) | raw data 1 (puncta) | raw data 2 (puncta) | AvZ (average z score of seeding, SDs from the mean level of seeding) | av Z [4] | av Z [5] | Compound | av Z [3]
– | -1.187 | – | – | – | – | 257.55 | 427.718 | 87.382 | – | – | – | O=C(O[C@@H]1Cc2c(O)cc(O)cc2O[C@H]1c1cc(O)c(O)c(O)c1)c1cc(O)c(O)c(O)c1 [(-)-Gallocatechin gallate] | –
0.224 | -0.662 | -0.219 | 17367.3 | 29041 | 5693.57 | – | – | – | – | – | – | COc1cc(/C=C/C(=O)OCC2OC(OC3(CO)OC(CO)C(O)C3OC(=O)/C=C/c3cc(OC)c(O)c(OC)c3)C(O)C(O)C2O)cc(OC)c1O (stereo not shown) [(E)-3',6-Disinapoylsucrose] | –
-0.027 | -0.222 | – | – | – | – | 18211.5 | 26028.3 | 10394.7 | – | – | -0.124 | COc1ccc(-c2cc(=O)c3c(O)cc(O)cc3o2)cc1 [Acacetin] | –
-0.301 | 0.292 | – | – | – | – | 19312.6 | 22737.6 | 15887.6 | – | – | -0.004 | O=C(OCC1=C[C@@H](O)[C@@H]2C=CO[C@@H](O[C@@H]3O[C@H](CO)[C@@H](O)[C@H](O)[C@H]3O)[C@H]12)c1ccc(O)cc1 [Agnuside] | –
-1.539 | -0.722 | -1.13 | – | – | – | 6464.64 | 7875.9 | 5053.37 | – | – | – | CCCC(=O)c1c(O)c(Cc2c(O)c(Cc3c(O)c(C)c(OC)c(C(=O)CCC)c3O)c(O)c(C(=O)[C@@H](C)CC)c2O)c(O)c(C)c1OC [Agrimol B] | –
0.545 | -0.475 | – | – | – | – | 20292.7 | 32890.3 | 7695.05 | – | – | 0.035 | CC(C)=CCc1c2ccoc2c(O)c2oc(=O)ccc12 [Alloimperatorin] | –
-0.712 | -0.064 | -0.388 | 14937.3 | 17796.3 | 12078.3 | – | – | – | – | – | – | O=C1c2cc(CO)cc(O)c2C(=O)c2c(O[C@@H]3O[C@H](CO)[C@@H](O)[C@H](O)[C@H]3O)cccc21 [Aloe-emodin-8-O-?-D-glucopyranoside] | –
-0.796 | -0.937 | -0.867 | – | – | – | 9774.18 | 16789.2 | 2759.19 | – | – | – | COc1cc(C)c2c(=O)cc(C[C@@H](C)O)oc2c1[C@@H]1O[C@H](CO)[C@@H](O)[C@H](O)[C@H]1OC(=O)/C=C/c1ccc(O)cc1 [Aloeresin D] | –
0.434 | -0.315 | – | – | – | – | 20479 | 31560.5 | 9397.5 | – | – | 0.059 | O=C1c2c(O)cccc2[C@@H]([C@@H]2O[C@H](CO)[C@@H](O)[C@H](O)[C@H]2O)c2cc(CO)cc(O)c21 [Aloin B] | –
-0.336 | -0.332 | -0.334 | 15768.9 | 22314.5 | 9223.26 | – | – | – | – | – | – | O=C1c2c(O)cccc2C([C@@H]2O[C@H](CO)[C@@H](O)[C@H](O)[C@H]2O)c2cc(CO)cc(O)c21 (stereo partly shown) [Aloin(mixture of A&B)] | –
-0.87 | -0.309 | -0.589 | 12689.4 | – | – | – | 15910.5 | 9468.24 | – | – | – | O=c1cc(-c2ccc(O)c(-c3c(O)cc(O)c4c(=O)cc(-c5ccc(O)cc5)oc34)c2)oc2cc(O)cc(O)c12 [Amentoflavone] | –
0.086 | -0.324 | – | – | – | – | 18346.5 | 27383.8 | 9309.16 | -0.119 | – | – | CCCCCCCCCCCCCCCc1cccc(O)c1C(=O)O [Anacardic Acid] | –
0.518 | -0.371 | – | – | – | – | 20688.8 | 32570.5 | 8807.12 | – | – | 0.074 | O=c1cc(-c2ccc(O)cc2)oc2cc(O[C@@H]3O[C@H](CO)[C@@H](O)[C@H](O)[C@H]3O)cc(O)c12 [Apigenin 7-glucoside] | –
1.204 | 0.234 | – | – | – | – | 28032.2 | 40800.8 | 15263.6 | – | 0.719 | – | O=c1cc(-c2ccc(O)cc2)oc2cc(O[C@@H]3O[C@H](CO)[C@@H](O)[C@H](O)[C@H]3O[C@@H]3OC[C@](O)(CO)[C@H]3O)cc(O)c12 [Apiin] | –
-0.665 | 0.333 | – | – | – | – | 17341.3 | 18360 | 16322.6 | – | – | -0.166 | OC[C@H]1O[C@@H](Oc2ccc(O)cc2)[C@H](O)[C@@H](O)[C@@H]1O [Arbutin] | –
